In US9861640B2, “Medicament for treatment of Alzheimer's disease” (KEMPHYS LTD., priority 2013, dated 2018):

Tested on: full-length (fl)-APP
Experiment: Immunoblot of full-length APP in brains of APP23 mice
Assay type: in vivo, mouse
Details: 8.5-month-old male APP23 mice; Am80 0.5 and/or HX630 5 mg/kg/d; day 18
Description: APP23 mice begin forming amyloid deposits when they are 6 months old, but memory deficits in the MWM test appear quite early (before 3 months of age). Here, we used 8.5-month-old male APP23 mice and their WT littermates (C57BL/6J). We used stratified random sampling to divide mice (four to six per cage) into four groups to equalize the mean body weight of the study groups: mice given 0.5 mg/kg/d Am80, those given 5 mg/kg/d HX630, those given the mixture of 0.5 mg/kg/d Am80 and 5 mg/kg/d HX630, and those given the vehicle. Am80 and HX630 were suspended in 0.5% (w/v) carboxymethylcellulose solution and were orally administered to mice at 0.5 mg/kg (Am80) or 5 mg/kg (HX630) for 17 consecutive days (once daily at 18:00). Control animals received the same volume of 0.5% (w/v) carboxymethylcellulose solution orally, without the other compounds. We set the 0.5 mg/kg/d dose for Am80 on the basis that this had been found effective in other in vivo studies, such as those by Kawahara et al. and Ishido and Shudo [37]. Higher doses of Am80 (3 mg/kg/d and 6 mg/kg/d) were also orally administered to mice for 17 consecutive days. Animals were weighed once a week. Mice were subjected to behavioral testing on days 15-18 of the first oral administration of the compounds (at 19:00-23:00). On days 15-17 (not day 18), animals received the compounds at 24:00, after behavioral testing. […]

Compound | total amount of full-length (fl)-APP in brain
CC1(C)CCC(C)(C)c2cc(NC(=O)c3ccc(C(=O)O)cc3)ccc21 [Am80, 4-{(5,6,7,8-tetrahydro-5,5,8,8-tetramethyl-2-naphthalenyl)carbamoyl}benzoic acid] | had no effect
CN1c2ccccc2N=C(c2ccc(C(=O)O)cc2)c2cc3c(cc21)C(C)(C)CCC3(C)C [HX630, 4-[5H-2,3-(2,5dimethyl-2,5-hexano)-5-methyldibenzo[b,e]-diazepin-11-yl]benzoic acid] | had no effect
